For test [1], the target named is T1, HDAC6 (Homo sapiens, UniProt Q9UBN7).
T1 sequence (Q9UBN7 1-1215): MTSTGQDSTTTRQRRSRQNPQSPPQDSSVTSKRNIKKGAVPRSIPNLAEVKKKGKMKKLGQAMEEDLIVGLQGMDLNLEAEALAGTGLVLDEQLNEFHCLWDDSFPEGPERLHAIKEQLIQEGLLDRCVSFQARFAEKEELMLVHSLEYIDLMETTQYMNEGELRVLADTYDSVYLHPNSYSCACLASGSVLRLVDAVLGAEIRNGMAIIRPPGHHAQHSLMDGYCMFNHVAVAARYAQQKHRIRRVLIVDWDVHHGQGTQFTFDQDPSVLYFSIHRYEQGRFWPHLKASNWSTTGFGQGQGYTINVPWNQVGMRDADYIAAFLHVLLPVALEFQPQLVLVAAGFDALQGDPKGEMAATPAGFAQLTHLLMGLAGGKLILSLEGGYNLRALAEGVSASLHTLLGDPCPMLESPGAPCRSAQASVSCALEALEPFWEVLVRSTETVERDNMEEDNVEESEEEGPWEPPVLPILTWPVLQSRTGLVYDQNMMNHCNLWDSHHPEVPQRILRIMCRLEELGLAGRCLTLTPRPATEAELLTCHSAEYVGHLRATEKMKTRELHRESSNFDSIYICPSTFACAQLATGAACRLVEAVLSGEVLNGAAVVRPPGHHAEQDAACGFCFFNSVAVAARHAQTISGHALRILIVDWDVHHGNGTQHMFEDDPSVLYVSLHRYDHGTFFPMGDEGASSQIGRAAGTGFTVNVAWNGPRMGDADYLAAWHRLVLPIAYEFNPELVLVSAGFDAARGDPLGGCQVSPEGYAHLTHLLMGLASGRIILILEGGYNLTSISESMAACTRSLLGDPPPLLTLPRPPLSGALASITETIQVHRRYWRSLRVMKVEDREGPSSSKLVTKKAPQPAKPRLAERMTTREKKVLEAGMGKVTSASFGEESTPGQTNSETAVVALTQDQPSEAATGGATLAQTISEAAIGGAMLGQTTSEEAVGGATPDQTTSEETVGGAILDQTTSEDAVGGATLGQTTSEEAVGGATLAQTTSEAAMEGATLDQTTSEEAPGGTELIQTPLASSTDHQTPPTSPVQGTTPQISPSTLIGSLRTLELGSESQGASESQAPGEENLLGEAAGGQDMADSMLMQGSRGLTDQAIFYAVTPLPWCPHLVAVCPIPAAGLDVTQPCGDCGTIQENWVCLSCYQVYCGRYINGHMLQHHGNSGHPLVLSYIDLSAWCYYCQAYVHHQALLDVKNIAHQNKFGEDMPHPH
In words: Biochemical HDAC6 inhibitory activity assay.

A further test concerns the target T2, HDAC7 (Homo sapiens, UniProt Q8WUI4).
T2 sequence (Q8WUI4 1-952): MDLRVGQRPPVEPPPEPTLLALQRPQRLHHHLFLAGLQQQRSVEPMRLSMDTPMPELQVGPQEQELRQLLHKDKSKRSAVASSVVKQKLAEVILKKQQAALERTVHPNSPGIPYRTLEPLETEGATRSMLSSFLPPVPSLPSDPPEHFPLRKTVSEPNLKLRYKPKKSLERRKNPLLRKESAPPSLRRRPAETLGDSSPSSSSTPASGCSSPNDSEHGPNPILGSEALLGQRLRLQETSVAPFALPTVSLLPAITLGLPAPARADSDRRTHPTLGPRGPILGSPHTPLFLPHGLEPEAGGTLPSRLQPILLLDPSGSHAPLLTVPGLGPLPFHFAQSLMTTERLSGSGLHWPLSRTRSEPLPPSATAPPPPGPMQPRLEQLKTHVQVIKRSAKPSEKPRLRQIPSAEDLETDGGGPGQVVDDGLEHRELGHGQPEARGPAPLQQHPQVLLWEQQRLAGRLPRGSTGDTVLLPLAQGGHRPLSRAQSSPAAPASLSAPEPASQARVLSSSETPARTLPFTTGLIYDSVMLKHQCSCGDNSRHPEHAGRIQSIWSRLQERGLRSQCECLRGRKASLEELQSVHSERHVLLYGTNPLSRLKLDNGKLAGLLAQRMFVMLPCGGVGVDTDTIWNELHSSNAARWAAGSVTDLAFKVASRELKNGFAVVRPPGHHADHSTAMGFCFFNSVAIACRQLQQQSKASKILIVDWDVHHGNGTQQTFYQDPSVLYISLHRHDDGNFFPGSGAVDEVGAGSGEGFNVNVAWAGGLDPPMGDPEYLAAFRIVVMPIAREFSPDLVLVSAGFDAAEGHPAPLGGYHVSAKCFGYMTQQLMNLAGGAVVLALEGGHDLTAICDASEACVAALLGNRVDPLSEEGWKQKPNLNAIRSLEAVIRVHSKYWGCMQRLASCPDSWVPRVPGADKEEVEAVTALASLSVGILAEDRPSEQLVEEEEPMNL
In words: HDAC selectivity panel: HDAC7. The test is classed as biochemical.

The next test concerns the target HDAC9 (Homo sapiens, UniProt Q9UKV0). In words: HDAC selectivity panel: HDAC9. It counts as biochemical.
For test [2], the target named is T1, HDAC6. In words: NanoBRET assay for target engagement in HEK293 cells transiently transfected with HDAC6. The test is classed as cell-based. The note with it: HEK293 cells transfected with HDAC6-NanoLuc Fusion vector, 1 hour. For orientation: In BRET a luciferase serves as donor, and the signal depends on an acceptor being close.
Test [3] deals with B6SJL.SOD1-G93A transgenic mouse model of amyotrophic lateral sclerosis. In words: ALS mouse model: rotarod test. It counts as in vivo, mice. Here is the method:
The Rotarod test was used for motor coordination assessment in mice. Animals were accustomed to the rotarod at 10 rpm for 300 s followed by training for 2 days at accelerated rpm (4-40 for 300 s) with 15 minutes inter trial interval. On the day of the test, animals were subjected to rotarod test at 4-40 rpm for 300 s with 15 minutes inter trial interval. During the training and test, the latency to fall off the rod was recorded. A total of 3 trials were recorded, data was averaged and analyzed.
Note: Behavioral tests were performed once in two weeks, i.e. at week 10, 12, 14 and 16.

“And” between values parts separate entries of the source, which are not always exact repeats. Equal values may be shown once. Some results are limits rather than exact numbers.

Here are results for 2 compounds from patent US20260109690A1, “HDAC6 INHIBITORS AND METHOD OF THEIR USE” (Baerenkraft Therapeutics, LLC., priority 2024, published 2026).

Chain of HDAC9 (Q9UKV0 whole entry, species assumed, the tested form may be a part): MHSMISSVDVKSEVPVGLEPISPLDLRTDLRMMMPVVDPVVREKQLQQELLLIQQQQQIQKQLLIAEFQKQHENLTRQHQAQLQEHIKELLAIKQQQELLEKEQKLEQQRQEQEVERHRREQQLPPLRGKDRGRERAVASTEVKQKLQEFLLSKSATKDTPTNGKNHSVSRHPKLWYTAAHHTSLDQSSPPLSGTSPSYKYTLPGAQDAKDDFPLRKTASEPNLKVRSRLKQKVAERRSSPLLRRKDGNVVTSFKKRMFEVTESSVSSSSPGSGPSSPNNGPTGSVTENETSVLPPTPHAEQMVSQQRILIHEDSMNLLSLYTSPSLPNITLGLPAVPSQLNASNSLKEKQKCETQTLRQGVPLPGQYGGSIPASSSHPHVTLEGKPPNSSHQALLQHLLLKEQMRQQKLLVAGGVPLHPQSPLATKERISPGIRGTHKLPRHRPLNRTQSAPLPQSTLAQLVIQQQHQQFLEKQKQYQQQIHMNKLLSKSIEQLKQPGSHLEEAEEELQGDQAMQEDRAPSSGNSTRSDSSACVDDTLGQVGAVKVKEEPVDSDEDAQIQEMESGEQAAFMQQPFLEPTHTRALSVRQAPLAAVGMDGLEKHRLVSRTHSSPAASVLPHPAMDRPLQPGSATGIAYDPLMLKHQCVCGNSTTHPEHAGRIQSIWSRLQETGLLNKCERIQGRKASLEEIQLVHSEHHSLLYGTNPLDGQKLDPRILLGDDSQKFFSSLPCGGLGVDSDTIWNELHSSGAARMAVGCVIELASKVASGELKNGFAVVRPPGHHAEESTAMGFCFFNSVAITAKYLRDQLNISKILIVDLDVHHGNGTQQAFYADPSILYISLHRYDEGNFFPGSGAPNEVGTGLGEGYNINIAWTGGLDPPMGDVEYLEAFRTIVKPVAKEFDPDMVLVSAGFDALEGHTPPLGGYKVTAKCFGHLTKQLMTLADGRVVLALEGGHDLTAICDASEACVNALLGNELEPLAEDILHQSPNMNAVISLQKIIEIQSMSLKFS

As usually defined, the IC50 is the concentration that gives 50% inhibition. What is called EC50 is the midpoint of the concentration-response curve. Read a high EC50 as a need for much substance. Take `CC1CN(Cc2ccc(Nc3nccc(-c4ccc(C(=O)NO)cc4)n3)cc2F)CCO1` (racemic) [Compound I-8, 4-(2-((3-fluoro-4-((2-methylmorpholino)methyl)phenyl)amino)pyrimidin-4-yl)-N-hydroxybenzamide]: the IC50 on HDAC6 [1] (10-dose IC50 mode, in singlet, 3-fold serial dilution, test compound starting at 100 millimolar, read-out: HDAC6 IC50) is 0.00732 µM; at HDAC6 [1] (read-out: HDAC6 IC50) it was less than 1 µM; against HDAC7 it was 12.4 µM; against HDAC9, 22 µM; against HDAC6 [2], 0.0347 µM and 0.035 µM. This compound also yielded an EC50 on HDAC6 [1] (10-dose in vitro test (FIG. 1)) of 0.00732 µM. Besides, the “selectivity for HDAC6 compared to other HDACs” value on HDAC6 [1] (against 11 HDACs) is on record as “marked selectivity for HDAC6”. Besides, the “Rotarod Test latency to fall” value in test [3] (G3 15 mg/kg p.o. QD, Week 10) was 137.59 ± 15.62 s; in test [3] (G3 15 mg/kg p.o. QD, Week 12), 119.19 ± 18.07 s; in test [3] (G3 15 mg/kg p.o. QD, Week 14), 88.63 ± 10.57 s; in test [3] (G3 15 mg/kg p.o. QD, Week 16) it was 34.04 ± 12.74 s; in test [3] (G4 30 mg/kg (50 mg/kg from day 34) p.o. QD, Week 10) it was 140 ± 13.47 s; in test [3] (G4 30 mg/kg (50 mg/kg from day 34) p.o. QD, Week 12) it was 120.58 ± 13.17 s. In addition, the “Rotarod Test latency to fall” value in test [3] (G4 30 mg/kg (50 mg/kg from day 34) p.o. QD, Week 14) came to 86 ± 16.17 s; in test [3] (G4 30 mg/kg (50 mg/kg from day 34) p.o. QD, Week 16), 39.79 ± 20.43 s.

As for `C[C@@H]1CN(Cc2ccc(Nc3nccc(-c4ccc(C(=O)NO)cc4)n3)cc2F)CCO1` [Compound I-16, (R)-4-(2-((3-fluoro-4-((2-methylmorpholino)methyl)phenyl)amino)pyrimidin-4-yl)-N-hydroxybenzamide], the IC50 was less than 1 µM on HDAC6 [1] (read-out: HDAC6 IC50) and 0.0124 µM on HDAC6 [1] (unit inferred, read-out: IC50 against HDAC6 (FIG. 3)).
